Results taken from patent publication US20070077279A1, “Novel compositions containing polyphenols” (DSM IP Assets B.V., priority 2005, published 2007).

Columns and labels:
Format in all cases: physicochemical
[1] = Storage test of lozenges at room temperature (25° C./60% relative humidity) in closed polypropylene tubes; conditions: for Vitamin/polyphenol in mg/tablet, 1 month: lozenges of Example 1, 1 month; for Vitamin/polyphenol in mg/tablet, 2 months: lozenges of Example 1, 2 months; for Vitamin/polyphenol in mg/tablet, 3 months: lozenges of Example 1, 3 months; for Vitamin/polyphenol in mg/tablet, 6 months: lozenges of Example 1, 6 months; for Vitamin/polyphenol in mg/tablet, 12 months: lozenges of Example 1, 12 months; for Vitamin/polyphenol in mg/tablet, 18 months: lozenges of Example 1, 18 months; for Vitamin/polyphenol in mg/tablet, 24 months: lozenges of Example 1, 24 months
[2] = Storage test of chewable tablets at room temperature (25° C./60% relative humidity) in closed polypropylene tubes; conditions: for Vitamin/polyphenol in mg/tablet, 1 month: chewable tablets of Example 2, 1 month; for Vitamin/polyphenol in mg/tablet, 2 months: chewable tablets of Example 2, 2 months; for Vitamin/polyphenol in mg/tablet, 3 months: chewable tablets of Example 2, 3 months; for Vitamin/polyphenol in mg/tablet, 6 months: chewable tablets of Example 2, 6 months; for Vitamin/polyphenol in mg/tablet, 12 months: chewable tablets of Example 2, 12 months
[3] = Storage test of lozenges under accelerated conditions (40° C./75% relative humidity) in closed polypropylene tubes; conditions: lozenges of Example 1; for Initial Assay, vitamin/polyphenol in mg/tablet: 40° C./75% relative humidity study; for Vitamin/polyphenol in mg/tablet, 1 month 40° C. / Vitamin/polyphenol in mg/tablet, 2 months 40° C. / Vitamin/polyphenol in mg/tablet, 3 months 40° C.: 40° C./75% relative humidity
[4] = Storage test of chewable tablets under accelerated conditions (40° C./75% relative humidity) in closed polypropylene tubes; conditions: chewable tablets of Example 2; for Initial Assay, vitamin/polyphenol in mg/tablet: 40° C./75% relative humidity study; for Vitamin/polyphenol in mg/tablet, 1 month 40° C. / Vitamin/polyphenol in mg/tablet, 2 months 40° C. / Vitamin/polyphenol in mg/tablet, 3 months 40° C.: 40° C./75% relative humidity
[5] = lozenges of Example 1, initial (Table 2)
[6] = chewable tablets of Example 2, initial
[7] = chewable tablets of Example 2, initial (Table 4)

Row | Vitamin/polyphenol in mg/tablet, 1 month [1] [mg] | Vitamin/polyphenol in mg/tablet, 2 months [1] [mg] | Vitamin/polyphenol in mg/tablet, 3 months [1] [mg] | Vitamin/polyphenol in mg/tablet, 6 months [1] [mg] | Vitamin/polyphenol in mg/tablet, 12 months [1] [mg] | Vitamin/polyphenol in mg/tablet, 18 months [1] [mg] | Vitamin/polyphenol in mg/tablet, 24 months [1] [mg] | Initial Assay, vitamin/polyphenol in mg/tablet ([1]; lozenges of Example 1, initial) [mg] | Initial Assay, vitamin/polyphenol in mg/tablet [1, 5] [mg] | Vitamin/polyphenol in mg/tablet, 1 month [2] [mg] | Vitamin/polyphenol in mg/tablet, 2 months [2] [mg] | Vitamin/polyphenol in mg/tablet, 3 months [2] [mg] | Vitamin/polyphenol in mg/tablet, 6 months [2] [mg] | Vitamin/polyphenol in mg/tablet, 12 months [2] [mg] | Initial Assay, vitamin/polyphenol in mg/tablet [2, 6] [mg] | Initial Assay, vitamin/polyphenol in mg/tablet [2, 7] [mg] | Initial Assay, vitamin/polyphenol in mg/tablet [3] [mg] | Vitamin/polyphenol in mg/tablet, 1 month 40° C. [3] [mg] | Vitamin/polyphenol in mg/tablet, 2 months 40° C. [3] [mg] | Vitamin/polyphenol in mg/tablet, 3 months 40° C. [3] [mg] | SMILES | further results
1 | 1.7 | 1.7 | 1.8 | 1.6 | 1.5 | 1.6 | 1.7 | 1.6 | 1.6 | 8.4 | 8.5 | 8.6 | 8.3 | 8.6 | 8.3 | 8.3 | 1.6 | 1.6 | 1.6 | 1.8 | CC(=O)Oc1c(C)c(C)c2c(c1C)CCC(C)(CCC[C@H](C)CCC[C@H](C)CCCC(C)C)O2 (stereo partly drawn) [Vit E, Tocopherol Acetate] | Initial Assay, vitamin/polyphenol in mg/tablet [4]: 8.3 mg; Vitamin/polyphenol in mg/tablet, 1 month 40° C. [4]: 8.7 mg; Vitamin/polyphenol in mg/tablet, 2 months 40° C. [4]: 8.5 mg; Vitamin/polyphenol in mg/tablet, 3 months 40° C. [4]: 8.5 mg
2 | 11.4 | 12.2 | 11.3 | 12.3 | 12.1 | 12.0 | 11.9 | 12.2 | 12.2 | 32.3 | 33.3 | 36.1 | 32.5 | 33.0 | 33.7 | 33.7 | 12.2 | 11.2 | 11.1 | 11.2 | O=C1O[C@H]([C@@H](O)CO)C(O)=C1O [Vit C, Ascorbic Acid] | Initial Assay, vitamin/polyphenol in mg/tablet [4]: 33.7 mg; Vitamin/polyphenol in mg/tablet, 1 month 40° C. [4]: 31.8 mg; Vitamin/polyphenol in mg/tablet, 2 months 40° C. [4]: 32.4 mg; Vitamin/polyphenol in mg/tablet, 3 months 40° C. [4]: 33.6 mg
3 | 11.8 | 10.9 | 11.0 | 10.6 | 11.6 | 12.0 | 11.3 | 11.9 | 11.9 | 23.0 | 23.8 | 24.1 | 23.7 | 22.6 | 23.8 | 23.8 | 11.9 | 11.8 | 11.4 | 10.6 | O=C(O[C@@H]1Cc2c(O)cc(O)cc2O[C@@H]1c1cc(O)c(O)c(O)c1)c1cc(O)c(O)c(O)c1 [EGCG, epigallocatechin gallate] | Initial Assay, vitamin/polyphenol in mg/tablet [4]: 23.8 mg; Vitamin/polyphenol in mg/tablet, 1 month 40° C. [4]: 24.8 mg; Vitamin/polyphenol in mg/tablet, 2 months 40° C. [4]: 23.2 mg; Vitamin/polyphenol in mg/tablet, 3 months 40° C. [4]: 23.2 mg
